Laboratory results taken from article PMC6005897, “Ligand-Induced Variations in Structural and Dynamical Properties Within an Enzyme Superfamily” (Frontiers in Molecular Biosciences, 2018).
Read-outs that look alike come from different tables or passages of the source.

Assays:
[1] = target: bovine RNase A (RNA_Bovine); set-up: method as in Gagné et al. ([2012]); conditions: ref Gagné et al. ([2012]); cited from earlier work
[2] = target: T1, human RNase 3 (RN3_Human) (Homo sapiens, UniProt P12724); test: NMR chemical shift titration, ligand binding to human RNase 3
T1 construct: made in house; host or cells: Escherichia coli
T1 sequence (P12724 28-160): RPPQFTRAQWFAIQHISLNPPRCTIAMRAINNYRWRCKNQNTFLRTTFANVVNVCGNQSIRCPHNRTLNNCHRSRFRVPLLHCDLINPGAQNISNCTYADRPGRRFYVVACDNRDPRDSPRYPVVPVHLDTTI
Excerpt: (§1) The pH was carefully monitored throughout the experiments and readjusted with Tris-base or acetic acid if necessary. Ligands 3′-UMP (Chemical Impex Intl Inc., Wood Dale, IL, USA) and 5′-AMP (BioBasic Inc., Markham, ON Canada) were purchased commercially and dissolved in the same buffer as the protein. ^1H-^15N sensitivity-enhanced HSQC experiments were acquired at 800 MHz (18.8 T) using spectral widths (points) of 2025 (160) and 8000 Hz (1024) in the ω1 and ω2 dimensions, respectively. Titration experiments were performed for each ligand with enzyme:ligand molar ratios up to 1:12 (1:12), 1:18 (1:18), 1:24 (1:18), 1:30 (1:18) and 1:18 (1:30) for the 3′-UMP- (5′-AMP-) bound states of bovine RNase A and human RNases 2, 3, 4, and 5, respectively.
The equilibrium dissociation constant (Kd) was calculated by plotting weighted average chemical shift differences (Δδobs) as a function of ligand concentration and fitting the data using the following equation:
(1) Δδobs=Δδmax/2[P]t([P]t+[L]t/[P]t[P]t+Kd −([P]t+[L]t/[P]t[P]t+Kd)^2−4[L]t/[P]t[P]^2t)
(§2) The Kd was estimated by simultaneously fitting the data of all residues affected by ligand binding (Williamson, [2013]). We note that Δδmax is a fitted parameter and not an experimentally measured one. Uncertainties on these values are given by the standard deviations of the fits. Chemical shift perturbations (Δδobs) were calculated as the difference in the weighted average chemical shift of the ligand-bound (5′-AMP and 3′-UMP) and apo states, as shown below.
(2) Δδobs=(ΔδH)^2+(0.2ΔδN)^2/2

[3] = target: T2, human RNase 2 (RN2_Human) (Homo sapiens, UniProt P10153); test: NMR chemical shift titration, ligand binding to human RNase 2
T2 construct: made in house; host or cells: Escherichia coli
T2 sequence (P10153 28-161): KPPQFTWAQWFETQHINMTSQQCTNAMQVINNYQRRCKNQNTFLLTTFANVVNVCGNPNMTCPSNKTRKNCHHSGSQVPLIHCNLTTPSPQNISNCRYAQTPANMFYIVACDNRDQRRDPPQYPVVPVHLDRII
Excerpt: as §1
(§3) The equilibrium dissociation constant (Kd) was calculated by plotting weighted average chemical shift differences (Δδobs) as a function of ligand concentration and fitting the data using the following equation: […]
as §2, with “Uncertainties on these values are given by the standard deviations of the fits.” left out, “below. […]” for “below.”

[4] = target: T3, human RNase 5 (RN5_Human) (Homo sapiens, UniProt P03950); test: NMR chemical shift titration, ligand binding to human RNase 5; conditions: 298 K, 15 mM sodium acetate pH 5.0, ± standard deviation of the fit
T3 construct: made in house; host or cells: Escherichia coli
T3 sequence (P03950 25-147): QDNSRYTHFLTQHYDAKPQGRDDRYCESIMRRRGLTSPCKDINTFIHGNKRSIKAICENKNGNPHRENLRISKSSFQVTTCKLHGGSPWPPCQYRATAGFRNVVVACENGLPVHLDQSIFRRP
Excerpt: as §1, §3
as §2, with “Uncertainties on these values are given by the standard deviations of the fits.” left out, “below. […]” for “below.”

[5] = target: T4, human RNase 4 (RN4_Human) (Homo sapiens, UniProt P34096); test: NMR chemical shift titration, ligand binding to human RNase 4; conditions: 298 K, 15 mM sodium acetate pH 5.0, ± standard deviation of the fit
T4 construct: made in house; host or cells: Escherichia coli
T4 sequence (P34096 29-147): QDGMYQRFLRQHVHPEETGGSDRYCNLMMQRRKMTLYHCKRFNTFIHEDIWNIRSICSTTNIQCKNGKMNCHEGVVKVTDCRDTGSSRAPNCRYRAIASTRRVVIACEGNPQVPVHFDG
Excerpt: as §1, §3
as §2, with “Uncertainties on these values are given by the standard deviations of the fits.” left out, “below. […]” for “below.”

[6] = RN3_Human, 298 K, 15 mM sodium acetate pH 5.0, ± standard deviation of the fit, read-out: Kd

Row | Compound | Kd [1] | Kd [2, 6] | Kd [3] | Kd [4] | Kd [5] | Kd [2] | Kd ([3]; RN2_Human, 298 K, 15 mM sodium acetate pH 5.0, ± standard deviation of the fit, read-out: Kd)
1 | O=c1ccn([C@@H]2O[C@H](CO)[C@@H](OP(=O)(O)O)[C@H]2O)c(=O)[nH]1 [3′-UMP] | 9.7 ± 0.9 µM | 460 ± 100 µM | 456 ± 10.6 µM | 1940 µM | 10300 µM |  | 
2 | Nc1ncnc2c1ncn2[C@@H]1O[C@H](COP(=O)(O)O)[C@@H](O)[C@H]1O [5′-AMP] | 124 ± 1 µM |  |  |  |  | 300 ± 45 µM | 540 ± 31.4 µM
3 | dATATA |  | 302 ± 31 µM |  |  | 72.9 ± 9 µM |  | 
